The results in this text go back to publication PMC2788660 (Journal of medicinal chemistry, 2009).

Structures are written as SMILES. Square brackets hold non-standard residues; d marks the D form. Peptide text beside a SMILES is read from it. * marks the point of attachment. 1Nal = N[C@@H](Cc1cccc2ccccc12)C(=O)O; Asu = N[C@@H](CCCCCC(=O)O)C(=O)O; β3hL = CC(C)C[C@H](N)CC(=O)O; CH2CH2COOH = O=C(O)CC*

The target of one experiment is T1, HDAC6 (Homo sapiens, UniProt Q9UBN7).
T1 sequence (Q9UBN7 1-1215): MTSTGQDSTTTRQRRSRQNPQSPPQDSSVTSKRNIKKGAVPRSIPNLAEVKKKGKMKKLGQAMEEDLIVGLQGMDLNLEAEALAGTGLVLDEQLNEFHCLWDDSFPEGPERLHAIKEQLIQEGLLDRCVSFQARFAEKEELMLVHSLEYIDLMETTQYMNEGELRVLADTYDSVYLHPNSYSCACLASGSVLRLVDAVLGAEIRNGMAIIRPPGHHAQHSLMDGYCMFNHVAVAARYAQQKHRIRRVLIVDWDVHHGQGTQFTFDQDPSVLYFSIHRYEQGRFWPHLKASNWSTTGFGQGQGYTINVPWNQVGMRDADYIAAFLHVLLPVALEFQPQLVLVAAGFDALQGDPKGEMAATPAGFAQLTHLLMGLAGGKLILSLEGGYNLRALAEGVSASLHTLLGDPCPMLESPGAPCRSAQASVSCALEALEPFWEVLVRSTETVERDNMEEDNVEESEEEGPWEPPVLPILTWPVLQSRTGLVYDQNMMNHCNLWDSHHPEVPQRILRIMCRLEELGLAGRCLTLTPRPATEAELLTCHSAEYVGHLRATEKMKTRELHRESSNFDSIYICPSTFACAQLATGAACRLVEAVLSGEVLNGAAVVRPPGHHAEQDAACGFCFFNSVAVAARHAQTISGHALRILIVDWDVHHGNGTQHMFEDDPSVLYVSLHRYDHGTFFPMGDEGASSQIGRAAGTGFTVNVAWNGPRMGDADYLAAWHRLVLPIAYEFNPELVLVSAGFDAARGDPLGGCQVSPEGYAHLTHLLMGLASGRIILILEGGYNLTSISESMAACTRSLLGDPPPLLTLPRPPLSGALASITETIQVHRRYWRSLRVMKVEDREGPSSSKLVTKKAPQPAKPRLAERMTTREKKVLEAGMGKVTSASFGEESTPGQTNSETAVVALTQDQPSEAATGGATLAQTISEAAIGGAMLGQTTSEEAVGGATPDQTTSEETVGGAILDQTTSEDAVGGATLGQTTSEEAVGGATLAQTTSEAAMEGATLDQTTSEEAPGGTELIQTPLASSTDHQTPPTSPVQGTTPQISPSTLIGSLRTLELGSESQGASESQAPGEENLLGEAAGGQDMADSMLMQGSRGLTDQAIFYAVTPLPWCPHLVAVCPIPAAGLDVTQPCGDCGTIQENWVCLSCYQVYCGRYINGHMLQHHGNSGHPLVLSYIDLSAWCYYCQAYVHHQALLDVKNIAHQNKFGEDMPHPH

For a further experiment, the target named is HDAC1 (Homo sapiens, UniProt Q13547). The settings on record: relative to 3a.
Chain of HDAC1 (Q13547 whole entry): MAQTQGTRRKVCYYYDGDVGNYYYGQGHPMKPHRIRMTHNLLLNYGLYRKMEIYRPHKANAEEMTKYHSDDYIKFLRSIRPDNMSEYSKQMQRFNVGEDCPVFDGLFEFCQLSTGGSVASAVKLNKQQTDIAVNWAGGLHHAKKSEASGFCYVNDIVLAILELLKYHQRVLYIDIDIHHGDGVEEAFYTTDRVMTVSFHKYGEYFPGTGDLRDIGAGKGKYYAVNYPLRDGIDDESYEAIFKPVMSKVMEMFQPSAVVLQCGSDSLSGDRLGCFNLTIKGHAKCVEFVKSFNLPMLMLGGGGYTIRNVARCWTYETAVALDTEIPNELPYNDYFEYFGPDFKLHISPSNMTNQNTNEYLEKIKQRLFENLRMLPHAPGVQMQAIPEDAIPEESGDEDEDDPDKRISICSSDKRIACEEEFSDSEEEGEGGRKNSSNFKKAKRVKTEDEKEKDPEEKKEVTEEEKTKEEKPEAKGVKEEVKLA
The target of a further experiment is T2, HDAC8 (Homo sapiens, UniProt Q9BY41).
T2 sequence (Q9BY41 1-377): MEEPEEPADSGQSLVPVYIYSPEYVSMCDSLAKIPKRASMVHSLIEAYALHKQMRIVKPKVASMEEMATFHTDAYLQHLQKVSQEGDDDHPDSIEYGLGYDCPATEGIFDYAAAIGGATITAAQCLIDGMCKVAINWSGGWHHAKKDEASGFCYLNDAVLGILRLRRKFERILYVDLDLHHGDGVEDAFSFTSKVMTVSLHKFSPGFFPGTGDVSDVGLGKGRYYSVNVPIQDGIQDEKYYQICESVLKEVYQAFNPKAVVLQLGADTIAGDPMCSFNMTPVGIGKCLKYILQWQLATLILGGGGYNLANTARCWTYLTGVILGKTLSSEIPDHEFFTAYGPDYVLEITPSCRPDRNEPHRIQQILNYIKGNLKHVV
The settings on record: relative to 3a.

Regarding `CCC(=O)CCCCC[C@@H]1NC(=O)[C@H]2CCCCN2C(=O)[C@H]([C@@H](C)CC)NC(=O)[C@H](Cc2cn(OC)c3ccccc23)NC1=O` [1a, apicidin, reference compound], the “HDAC6 inhibition (in words)” value at HDAC6 is given as “did not inhibit HDAC6 in the concentration range tested”. For `CC(C)C[C@H]1CC(=O)N[C@@H](C)C(=O)N[C@@H](CSCCC(=O)O)C(=O)N[C@@H](Cc2c[nH]c3ccccc23)C(=O)N1` [4c] (cyclo(C(CH2CH2COOH)W[β3hL]A); ring closure inferred), the “decrease in potency against HDAC1, 3a vs. 4c” value on HDAC1 was ~ 40 fold. The “decrease in potency against HDAC8, 3a vs. 4c” value at HDAC8 was ~ 3 fold. With `CC(C)C[C@H]1CC(=O)N[C@@H](CCCNC(=N)N)C(=O)N[C@@H](CCCCCC(=O)O)C(=O)N[C@@H](Cc2cccc3ccccc23)C(=O)N1` [compound 17, c[Asu-Nal-β^3Leu-Arg]] (cyclo([Asu][1Nal][β3hL]R); ring closure inferred), the “fold more potent against HDAC6 compared to Ala–aa4 analog (8b)” value on HDAC6 is 3–4 fold.
